Where two headings read alike, the source gives them in different places. Square brackets hold non-standard residues; d marks the D form. Peptide text beside a SMILES is read from it. Trp(1-OMe) = COn1cc(C[C@H](N)C(=O)O)c2ccccc21; Asu = N[C@@H](CCCCCC(=O)O)C(=O)O; dPip = O=C(O)[C@H]1CCCCN1
What was measured:
[1] = in vitro; conditions: rat
[2] = target: T1, HDAC1 (Homo sapiens, UniProt Q13547); assay: In vitro HDAC inhibition assay (ZMAL substrate), HDAC1; type: biochemical
T1 construct: purchased BPS Bioscience 50051
T1 sequence (Q13547 whole entry): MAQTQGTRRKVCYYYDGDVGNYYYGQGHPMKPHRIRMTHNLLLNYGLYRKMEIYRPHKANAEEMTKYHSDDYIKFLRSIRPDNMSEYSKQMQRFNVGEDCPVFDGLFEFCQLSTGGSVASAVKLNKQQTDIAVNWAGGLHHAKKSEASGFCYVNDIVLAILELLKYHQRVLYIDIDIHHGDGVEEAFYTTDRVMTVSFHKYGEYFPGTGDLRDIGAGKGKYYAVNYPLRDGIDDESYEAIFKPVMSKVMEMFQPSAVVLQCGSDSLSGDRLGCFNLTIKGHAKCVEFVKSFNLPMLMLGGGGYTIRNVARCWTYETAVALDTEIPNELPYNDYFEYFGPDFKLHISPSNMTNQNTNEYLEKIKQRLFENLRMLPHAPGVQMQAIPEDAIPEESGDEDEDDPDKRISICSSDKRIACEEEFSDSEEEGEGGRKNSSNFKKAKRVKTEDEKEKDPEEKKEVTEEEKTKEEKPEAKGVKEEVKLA
Procedure: (§1) In vitro inhibitory activity against HDAC1-3 and 6 was determined using our previously published assay protocol. […] Next, the total assay volume (50 µL, max. 1% DMSO) was incubated at 37 °C for 90 min. Subsequently, 50 µL trypsin solution (0.4 mg/mL trypsin in buffer: 50 mM Tris- HCl, pH 8.0, 100 mM NaCl) was added, followed by additional 30 min of incubation at 37 °C. Fluorescence (excitation: 355 nm, emission: 460 nm) was measured using a FLUOstar OPTIMA microplate reader (BMG LABTECH). The IC50 values were determined by generating normalized dose–response curves using the build-in "log(inhibitor) vs. response (three parameters)" equation provided by GraphPad Prism (GraphPad Prism 9.0, San Diego, USA). Compounds were tested in duplicates, reported mean IC50 values, including standard deviation, are calculated from at least two independent experiments.

[3] = target: T2, HDAC6 (Homo sapiens, UniProt Q9UBN7); assay: In vitro HDAC inhibition assay (ZMAL substrate), HDAC6; type: biochemical
T2 construct: purchased BPS Bioscience 50006
T2 sequence (Q9UBN7 1-1215): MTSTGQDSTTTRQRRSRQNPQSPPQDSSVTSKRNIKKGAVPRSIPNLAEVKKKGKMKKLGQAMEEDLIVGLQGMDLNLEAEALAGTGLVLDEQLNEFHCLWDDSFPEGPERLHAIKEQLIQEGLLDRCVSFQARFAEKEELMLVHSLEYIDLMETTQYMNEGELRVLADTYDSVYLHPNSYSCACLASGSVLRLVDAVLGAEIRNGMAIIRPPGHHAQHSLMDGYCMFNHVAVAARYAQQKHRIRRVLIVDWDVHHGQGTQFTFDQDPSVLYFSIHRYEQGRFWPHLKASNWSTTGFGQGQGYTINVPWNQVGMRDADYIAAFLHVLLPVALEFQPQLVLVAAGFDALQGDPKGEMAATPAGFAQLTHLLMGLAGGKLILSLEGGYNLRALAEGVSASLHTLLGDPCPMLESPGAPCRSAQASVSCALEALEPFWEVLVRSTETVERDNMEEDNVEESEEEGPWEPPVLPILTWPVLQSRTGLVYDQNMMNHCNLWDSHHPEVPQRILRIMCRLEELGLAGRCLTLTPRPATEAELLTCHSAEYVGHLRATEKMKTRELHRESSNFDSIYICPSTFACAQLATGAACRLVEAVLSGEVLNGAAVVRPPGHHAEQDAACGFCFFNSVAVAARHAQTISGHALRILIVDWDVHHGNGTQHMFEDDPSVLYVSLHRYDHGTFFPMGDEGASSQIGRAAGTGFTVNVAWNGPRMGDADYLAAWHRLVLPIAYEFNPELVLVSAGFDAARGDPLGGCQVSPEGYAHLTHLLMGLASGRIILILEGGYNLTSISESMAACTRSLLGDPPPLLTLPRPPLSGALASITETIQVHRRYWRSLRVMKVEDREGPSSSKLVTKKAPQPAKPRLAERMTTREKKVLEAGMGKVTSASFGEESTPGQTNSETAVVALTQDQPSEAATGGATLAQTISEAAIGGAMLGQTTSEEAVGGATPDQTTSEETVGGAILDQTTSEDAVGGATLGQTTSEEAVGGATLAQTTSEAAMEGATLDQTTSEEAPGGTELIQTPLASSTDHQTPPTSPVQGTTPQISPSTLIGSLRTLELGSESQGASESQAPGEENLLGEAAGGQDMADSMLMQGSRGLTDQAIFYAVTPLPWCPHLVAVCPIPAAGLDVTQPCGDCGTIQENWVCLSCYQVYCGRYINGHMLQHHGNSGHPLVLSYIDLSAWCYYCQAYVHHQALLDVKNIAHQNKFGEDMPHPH
Procedure: as §1

[4] = tested on: P. falciparum NF54; assay: In vitro antiparasitic activity against P. falciparum; type: cell-based; conditions: Plasmodium falciparum, P. falciparum NF54, intraerythrocytic forms, read-out: IC50 inhibition of P. falciparum growth
Procedure: (§2) Furthermore, the whole set of isolated compounds was tested in vitro against T. brucei rhodesiense (bloodstream trypomastigotes) and P. falciparum (intraerythrocytic forms). All assays were performed using validated protocols at the Swiss TPH [34].

[5] = tested on: HepG2; conditions: human liver carcinoma cell line HepG2; cited from earlier work
[6] = tested on: Plasmodium falciparum; conditions: cited from earlier work
[7] = in vitro; conditions: human
[8] = tested on: Trypanosoma brucei rhodesiense STIB 900; assay: In vitro antiparasitic activity against T. brucei rhodesiense; type: cell-based; conditions: bloodstream trypomastigotes
Procedure: as §2

[9] = tested on: A549 (CCL-185); conditions: resazurin assay, 24 h incubation, 0.01-100 µM tested
[10] = tested on: HepG2 (HB-8065); conditions: resazurin assay, 24 h incubation, 0.01-100 µM tested
[11] = target: T3, HDAC2 (Homo sapiens, UniProt Q92769); assay: biochemical; conditions: mean ± SD of at least two independent experiments
T3 construct: purchased BPS Bioscience 50052
T3 sequence (Q92769 whole entry): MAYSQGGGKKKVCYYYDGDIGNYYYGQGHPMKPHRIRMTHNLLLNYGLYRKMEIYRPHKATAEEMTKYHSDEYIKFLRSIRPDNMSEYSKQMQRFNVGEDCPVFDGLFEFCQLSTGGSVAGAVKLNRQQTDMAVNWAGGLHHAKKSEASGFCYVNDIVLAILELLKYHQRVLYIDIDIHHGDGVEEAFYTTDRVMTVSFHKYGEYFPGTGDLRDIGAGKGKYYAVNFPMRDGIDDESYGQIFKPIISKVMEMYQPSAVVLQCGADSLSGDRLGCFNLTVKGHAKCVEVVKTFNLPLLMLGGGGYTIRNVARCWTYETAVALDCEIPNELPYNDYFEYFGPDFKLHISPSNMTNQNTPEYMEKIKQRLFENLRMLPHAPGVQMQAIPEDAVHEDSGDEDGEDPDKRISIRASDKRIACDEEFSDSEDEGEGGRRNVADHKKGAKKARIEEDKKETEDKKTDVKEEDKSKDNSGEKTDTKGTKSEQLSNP
Procedure: as §1, with “USA).” for “USA). Compounds were tested in duplicates, reported mean IC50 values, including standard deviation, are calculated from at least two independent experiments.”

[12] = target: T4, HDAC3/NcoR2 (Homo sapiens, UniProt O15379); assay: In vitro HDAC inhibition assay (ZMAL substrate), HDAC3; type: biochemical; conditions: mean ± SD of at least two independent experiments
T4 construct: purchased BPS Bioscience 50003
T4 sequence (O15379 whole entry): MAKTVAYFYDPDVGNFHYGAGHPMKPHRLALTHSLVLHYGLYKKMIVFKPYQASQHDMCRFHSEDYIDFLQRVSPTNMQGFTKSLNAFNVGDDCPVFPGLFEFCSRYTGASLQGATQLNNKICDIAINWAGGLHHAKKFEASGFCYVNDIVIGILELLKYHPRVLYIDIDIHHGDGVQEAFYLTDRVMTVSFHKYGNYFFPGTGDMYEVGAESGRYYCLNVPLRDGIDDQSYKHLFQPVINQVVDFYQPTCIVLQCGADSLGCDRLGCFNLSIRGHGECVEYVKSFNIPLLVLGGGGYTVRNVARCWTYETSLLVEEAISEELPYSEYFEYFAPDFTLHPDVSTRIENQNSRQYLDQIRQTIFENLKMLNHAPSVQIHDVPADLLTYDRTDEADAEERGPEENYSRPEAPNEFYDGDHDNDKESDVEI
T4 sequence (Q9Y618 395-489 partner limits assumed): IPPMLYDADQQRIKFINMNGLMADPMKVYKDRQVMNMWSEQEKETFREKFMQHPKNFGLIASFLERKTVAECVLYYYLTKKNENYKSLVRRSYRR
Procedure: as §1

[13] = mean ± SD of at least two independent experiments, [b] < 30% inhibition at the stated concentration, read-out: IC50 HDAC1
[14] = mean ± SD of at least two independent experiments, [b] < 30% inhibition at the stated concentration, read-out: IC50 HDAC6

Compound | IC50 [1] [nM] | IC50 [2, 13] [nM] | IC50 [3, 14] [nM] | IC50 [4] [nM] | IC50 [5] [nM] | IC50 ([6]; read-out: IC50 in the P. falciparum assay) [nM] | IC50 [7] [nM] | Activity against Trypanosoma brucei rhodesiense STIB 900 [8] | IC50 [2] [nM] | IC50 cytotoxicity A549 [9] | IC50 [3] [nM] | IC50 cytotoxicity HepG2 [10] | IC50 [11] [nM] | IC50 [12] [nM] | IC50 ([6]; read-out: IC50 antiparasitic activity against Plasmodium falciparum) [nM]
COn1cc(C[C@@H]2NC(=O)[C@H](CCCCCCO)NC(=O)[C@H]3CCCCN3C(=O)[C@H](Cc3ccccc3)NC2=O)c2ccccc21 [Apicidin K (3), (3S,6S,9S,12R)-3-benzyl-9-(6-hydroxyhexyl)-6-[(1-methoxyindol-3-yl)methyl]-1,4,7,10-tetrazabicyclo[10.4.0]hexadecane-2,5,8,11-tetrone] | 7200 | > 3330 | > 10000 | 1100 | – | – | – | – | – | – | – | – | – | – | –
CCC(=O)CCCCC[C@@H]1NC(=O)[C@H]2CCCCN2C(=O)[C@H]([C@@H](C)CC)NC(=O)[C@H](Cc2cn(OC)c3ccccc23)NC1=O [apicidin (5), apicidin] | – | – | – | – | 1300 | 200 | 2700 | – | – | – | – | – | – | – | –
COn1cc(C[C@@H]2NC(=O)[C@H](CCCCCCO)NC(=O)[C@H]3CCCN3C(=O)[C@H](Cc3ccccc3)NC2=O)c2ccccc21 [Apicidin L (4), (3S,6S,9S,14aR)-9-benzyl-3-(6-hydroxyhexyl)-6-[(1-methoxy-1H-indol-3-yl)methyl]decahydropyrrolo[1,2-a][1,4,7,10]tetraazacyclododecine-1,4,7,10-tetraone] | 20000 | – | – | 2100 | – | – | – | no effect | > 10000 | no IC50 could be calculated | > 10000 | no IC50 could be calculated | – | – | –
COn1cc(C[C@@H]2NC(=O)[C@H](CCCCCC(=O)O)NC(=O)[C@H]3CCCCN3C(=O)[C@H](Cc3ccccc3)NC2=O)c2ccccc21 [Apicidin F (1), 6-[(3S,6S,9S,12R)-3-benzyl-6-[(1-methoxyindol-3-yl)methyl]-2,5,8,11-tetraoxo-1,4,7,10-tetrazabicyclo[10.4.0]hexadecane-9-yl]hexanoic acid] (cyclo([Asu][Trp(1-OMe)]F[dPip])) | 63700 | 102 ± 4 | 6380 ± 1570 | 510 | 110000 | – | – | – | – | – | – | – | 164 ± 17 | 202 ± 26 | 670
COn1cc(C[C@@H]2NC(=O)[C@H](CCCCCC(=O)O)NC(=O)[C@H]3CCCN3C(=O)[C@H](Cc3ccccc3)NC2=O)c2ccccc21 [Apicidin J (2), 6-[(3S,6S,9S,12R)-3-benzyl-6-[(1-methoxyindol-3-yl)methyl]-2,5,8,11-tetraoxo-1,4,7,10-tetrazabicyclo[10.3.0]pentadecane-9-yl]hexanoate] (cyclo([Asu][Trp(1-OMe)]F[dP])) | 46500 | 342 ± 18 | 9870 ± 1400 | 1100 | – | – | – | – | – | no IC50 could be calculated | – | no IC50 could be calculated | 633 ± 28 | 754 ± 112 | –

From paper PMC11343938, “Micro-scale screening of genetically modified Fusarium fujikuroi strain extends the apicidin family” (Natural Products and Bioprospecting, 2024)
